According to PubChem BioAssay AID1918956 (Molecular Pharmacology Branch, DTP, NCI, 2023):
Several values for one entry are separate records, joined by “and”; a condition that tells them apart may be missing. Equal values may be shown once.

Tested on: OVCAR-5 complex spheroids, viability
Assay: Anticancer human tumor OVCAR-5 cell line growth inhibition;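 note: spheroids exposed to agents for seven days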;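 for viability, T/C: 100% = DMSO vehicle control wells viability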
Conditions: for viability, T/C: stronger effect = lower value; active = viability on the fitted dose curve at most 10% of control; inactive = the rest
Outline: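 Drug combinations with the LSD1 inhibitor iadademstat tested on tumor cells co-cultured as spheroids with endothelial cells and mesenchymal stem cells. Concentrations descended in half-log increments from clinical Cmax or 10 microM.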

[1] = curve of first compound, second compound 0.1 µM
[2] = curve of first compound, second compound 0.316 µM
[3] = curve of first compound, second compound 1 µM
[4] = curve of first compound, second compound 3.16 µM
[5] = curve of first compound, second compound 10 µM
[6] = second compound 0.1 µM, first compound 0.00949 µM
[7] = second compound 0.1 µM, first compound 0.03 µM
[8] = second compound 0.1 µM, first compound 0.0949 µM
[9] = second compound 0.1 µM, first compound 0.3 µM
[10] = second compound 0.1 µM, first compound 0.949 µM
[11] = second compound 0.1 µM, first compound 3 µM
[12] = second compound 0.316 µM, first compound 0.00949 µM
[13] = second compound 0.316 µM, first compound 0.03 µM
[14] = second compound 0.316 µM, first compound 0.0949 µM
[15] = second compound 0.316 µM, first compound 0.3 µM
[16] = second compound 0.316 µM, first compound 0.949 µM
[17] = second compound 0.316 µM, first compound 3 µM
[18] = second compound 1 µM, first compound 0.00949 µM
[19] = second compound 1 µM, first compound 0.03 µM
[20] = second compound 1 µM, first compound 0.0949 µM
[21] = second compound 1 µM, first compound 0.3 µM
[22] = second compound 1 µM, first compound 0.949 µM
[23] = second compound 1 µM, first compound 3 µM
[24] = second compound 3.16 µM, first compound 0.00949 µM
[25] = second compound 3.16 µM, first compound 0.03 µM
[26] = second compound 3.16 µM, first compound 0.0949 µM
[27] = second compound 3.16 µM, first compound 0.3 µM
[28] = second compound 3.16 µM, first compound 0.949 µM
[29] = second compound 3.16 µM, first compound 3 µM
[30] = second compound 10 µM, first compound 0.00949 µM
[31] = second compound 10 µM, first compound 0.03 µM
[32] = second compound 10 µM, first compound 0.0949 µM
[33] = second compound 10 µM, first compound 0.3 µM
[34] = second compound 10 µM, first compound 0.949 µM
[35] = second compound 10 µM, first compound 3 µM
[36] = second compound 0.1 µM, first compound 0.0316 µM
[37] = second compound 0.1 µM, first compound 0.1 µM
[38] = second compound 0.1 µM, first compound 0.316 µM
[39] = second compound 0.1 µM, first compound 1 µM
[40] = second compound 0.316 µM, first compound 0.0316 µM
[41] = second compound 0.316 µM, first compound 0.1 µM
[42] = second compound 0.316 µM, first compound 0.316 µM
[43] = second compound 0.316 µM, first compound 1 µM
[44] = second compound 1 µM, first compound 0.0316 µM
[45] = second compound 1 µM, first compound 0.1 µM
[46] = second compound 1 µM, first compound 0.316 µM
[47] = second compound 1 µM, first compound 1 µM
[48] = second compound 3.16 µM, first compound 0.0316 µM
[49] = second compound 3.16 µM, first compound 0.1 µM
[50] = second compound 3.16 µM, first compound 0.316 µM
[51] = second compound 3.16 µM, first compound 1 µM
[52] = second compound 10 µM, first compound 0.0316 µM
[53] = second compound 10 µM, first compound 0.1 µM
[54] = second compound 10 µM, first compound 0.316 µM
[55] = second compound 10 µM, first compound 1 µM

NS(=O)(=O)OCC1CC(n2ccc3c(NC4CCc5ccccc54)ncnc32)CC1O (centres undefined) + NC1CC1c1ccc(-c2cccc(O)c2)cc1
156 nM: IC50 [4]
186 nM: IC50 [1]
178 nM: IC50 [2]
active: viability, T/C [10] 8.27% | viability, T/C [11] 5.16% | viability, T/C [28] 7.78% | viability, T/C [29] 4.11% | viability, T/C [34] 6.76% | viability, T/C [35] 4.61%
145 nM: IC50 [3]
inactive: viability, T/C [6] 145% | viability, T/C [7] 133% | viability, T/C [8] 84.2% | viability, T/C [9] 25.6% | viability, T/C [12] 152% | viability, T/C [13] 149% | viability, T/C [14] 79.6% | viability, T/C [15] 26.9% | viability, T/C [16] 22.2% | viability, T/C [17] 4.93% | viability, T/C [18] 117% | viability, T/C [19] 145% | viability, T/C [20] 72% | viability, T/C [21] 25% | viability, T/C [22] 7.9% | viability, T/C [23] 4.8% | viability, T/C [24] 141% | viability, T/C [25] 126% | viability, T/C [26] 69.7% | viability, T/C [27] 23.8% | viability, T/C [30] 131% | viability, T/C [31] 101% | viability, T/C [32] 42.7% | viability, T/C [33] 16.2%
83.9 nM: IC50 [5]

CC1COCCN1c1cc(C2(S(C)(=N)=O)CC2)nc(-c2ccnc3[nH]ccc23)n1 (centres undefined)
1640 nM and 957 nM: IC50 (curve of compound)
inactive: viability, T/C (compound 0.0316 µM) 106% and 102% | viability, T/C (compound 0.1 µM) 110% and 101% | viability, T/C (compound 0.316 µM) 90.1% and 76% | viability, T/C (compound 1 µM) 57.5% and 48.9% | viability, T/C (compound 3.16 µM) 41.4% and 34.1% | viability, T/C (compound 10 µM) 35.5% and 25.4%

CC(C)c1c(-c2ccccc2)nc2c(C#N)c[nH]n2c1=O + NC1CC1c1ccc(-c2cccc(O)c2)cc1
> 10000 nM: IC50 [1] | IC50 [2] | IC50 [3] | IC50 [4] | IC50 [5]
inactive: viability, T/C [36] 92.2% | viability, T/C [37] 98.4% | viability, T/C [38] 97.4% | viability, T/C [39] 98.4% | viability, T/C (second compound 0.1 µM, first compound 3.16 µM) 99.9% | viability, T/C (second compound 0.1 µM, first compound 10 µM) 107% | viability, T/C [40] 98% | viability, T/C [41] 96% | viability, T/C [42] 102% | viability, T/C [43] 102% | viability, T/C (second compound 0.316 µM, first compound 3.16 µM) 98% | viability, T/C (second compound 0.316 µM, first compound 10 µM) 108% | viability, T/C [44] 87% | viability, T/C [45] 90% | viability, T/C [46] 97.1% | viability, T/C [47] 105% | viability, T/C (second compound 1 µM, first compound 3.16 µM) 96.1% | viability, T/C (second compound 1 µM, first compound 10 µM) 104% | viability, T/C [48] 88.3% | viability, T/C [49] 95.4% | viability, T/C [50] 77.8% | viability, T/C [51] 95.6% | viability, T/C (second compound 3.16 µM, first compound 3.16 µM) 88.8% | viability, T/C (second compound 3.16 µM, first compound 10 µM) 98.9% | viability, T/C [52] 82.2% | viability, T/C [53] 91% | viability, T/C [54] 80.5% | viability, T/C [55] 87.5% | viability, T/C (second compound 10 µM, first compound 3.16 µM) 87.7% | viability, T/C (second compound 10 µM, first compound 10 µM) 73.5%

Nc1ccn(C2OC(CO)C(O)C2(F)F)c(=O)n1 (centres undefined) + NC1CCC(NC2CC2c2ccccc2)CC1
< 0.949 nM: IC50 [1] | IC50 [2] | IC50 [3] | IC50 [4] | IC50 [5]
inactive: viability, T/C (second compound 0.1 µM, first compound 0.000949 µM) 27.8% | viability, T/C (second compound 0.1 µM, first compound 0.003 µM) 29% | viability, T/C [6] 30.3% | viability, T/C [7] 31.4% | viability, T/C [8] 30.7% | viability, T/C [9] 28.6% | viability, T/C (second compound 0.316 µM, first compound 0.000949 µM) 29.5% | viability, T/C (second compound 0.316 µM, first compound 0.003 µM) 30.3% | viability, T/C [12] 31% | viability, T/C [13] 32.4% | viability, T/C [14] 30.8% | viability, T/C [15] 30.6% | viability, T/C (second compound 1 µM, first compound 0.000949 µM) 32.8% | viability, T/C (second compound 1 µM, first compound 0.003 µM) 33.5% | viability, T/C [18] 34.3% | viability, T/C [19] 33.2% | viability, T/C [20] 32.7% | viability, T/C [21] 31.2% | viability, T/C (second compound 3.16 µM, first compound 0.000949 µM) 32.8% | viability, T/C (second compound 3.16 µM, first compound 0.003 µM) 34.4% | viability, T/C [24] 35.5% | viability, T/C [25] 36.3% | viability, T/C [26] 33.7% | viability, T/C [27] 31.9% | viability, T/C (second compound 10 µM, first compound 0.000949 µM) 33.3% | viability, T/C (second compound 10 µM, first compound 0.003 µM) 34.9% | viability, T/C [30] 36.8% | viability, T/C [31] 34.6% | viability, T/C [32] 34.9% | viability, T/C [33] 33.1%

O=C(C=Cn1cnc(-c2cc(C(F)(F)F)cc(C(F)(F)F)c2)n1)NNc1cnccn1
inactive: viability, T/C (compound 0.00316 µM) 91.8% and 90.3% | viability, T/C (compound 0.01 µM) 83.9% and 74.8% | viability, T/C (compound 0.0316 µM) 72.3% and 58.3% | viability, T/C (compound 0.1 µM) 53.3% and 44% | viability, T/C (compound 0.316 µM) 48.7% and 38.9% | viability, T/C (compound 1 µM) 40.4% and 34.1%
196 nM and 63.7 nM: IC50 (curve of compound)

CC1COCCN1c1cc(-c2ccnn2C)c2ccnc(-c3ccn[nH]3)c2n1 (centres undefined) + NC1CCC(NC2CC2c2ccccc2)CC1
61.9 nM: IC50 [2]
71.1 nM: IC50 [4]
81.4 nM: IC50 [3]
61.8 nM: IC50 [1]
inactive: viability, T/C (second compound 0.1 µM, first compound 0.00316 µM) 111% | viability, T/C (second compound 0.1 µM, first compound 0.01 µM) 86.9% | viability, T/C [36] 60.4% | viability, T/C [37] 41.7% | viability, T/C [38] 37.2% | viability, T/C [39] 31.6% | viability, T/C (second compound 0.316 µM, first compound 0.00316 µM) 110% | viability, T/C (second compound 0.316 µM, first compound 0.01 µM) 87.7% | viability, T/C [40] 61.2% | viability, T/C [41] 41% | viability, T/C [42] 37.4% | viability, T/C [43] 32% | viability, T/C (second compound 1 µM, first compound 0.00316 µM) 104% | viability, T/C (second compound 1 µM, first compound 0.01 µM) 88.8% | viability, T/C [44] 65.2% | viability, T/C [45] 46.2% | viability, T/C [46] 39.4% | viability, T/C [47] 34.7% | viability, T/C (second compound 3.16 µM, first compound 0.00316 µM) 83.8% | viability, T/C (second compound 3.16 µM, first compound 0.01 µM) 83.4% | viability, T/C [48] 60.1% | viability, T/C [49] 46.8% | viability, T/C [50] 40.7% | viability, T/C [51] 35.8% | viability, T/C (second compound 10 µM, first compound 0.00316 µM) 79.1% | viability, T/C (second compound 10 µM, first compound 0.01 µM) 65.9% | viability, T/C [52] 55% | viability, T/C [53] 41.9% | viability, T/C [54] 37.8% | viability, T/C [55] 33.3%
47.7 nM: IC50 [5]

O=C(C=Cc1cccc(S(=O)(=O)Nc2ccccc2)c1)NO + NC1CC1c1ccc(-c2cccc(O)c2)cc1
81.9 nM: IC50 [3]
active: viability, T/C [11] 2.54% | viability, T/C [17] 2.81% | viability, T/C [22] 9.19% | viability, T/C [23] 2.22% | viability, T/C [29] 2.06% | viability, T/C [35] 2.64%
78 nM: IC50 [5]
inactive: viability, T/C [6] 90.3% | viability, T/C [7] 78.2% | viability, T/C [8] 54.6% | viability, T/C [9] 28.7% | viability, T/C [10] 11.8% | viability, T/C [12] 89.4% | viability, T/C [13] 82.5% | viability, T/C [14] 55.3% | viability, T/C [15] 27.7% | viability, T/C [16] 13.8% | viability, T/C [18] 82.7% | viability, T/C [19] 69.6% | viability, T/C [20] 46.5% | viability, T/C [21] 25.3% | viability, T/C [24] 82.9% | viability, T/C [25] 67.5% | viability, T/C [26] 44.3% | viability, T/C [27] 25.9% | viability, T/C [28] 10.2% | viability, T/C [30] 87.9% | viability, T/C [31] 73.9% | viability, T/C [32] 40.2% | viability, T/C [33] 28.6% | viability, T/C [34] 11.8%
118 nM: IC50 [1]
124 nM: IC50 [2]
74 nM: IC50 [4]
